Measurements published in patent publication US20240376099A1, “COMPOUNDS AND COMPOSITIONS AS INHIBITORS OF ENDOSOMAL TOLL-LIKE RECEPTORS” (Novartis AG, priority 2016, published 2024).

Legend:
TLR8 = target: T1, TLR8 (Homo sapiens, UniProt Q9NR97); assay: huPBMC TLR8 Antagonist IL-6 TR-FRET Assay; assay type: cell-based; set-up: Fresh blood was collected from normal human donors; endogenous in cells; host or cells: human PBMCs from fresh donor blood; settings: human PBMCs stimulated with ssRNA40 1 μg/ml (DOTAP), 14-16 hrs; IL-6 TR-FRET read-out
T1 sequence (Q9NR97 27-1041): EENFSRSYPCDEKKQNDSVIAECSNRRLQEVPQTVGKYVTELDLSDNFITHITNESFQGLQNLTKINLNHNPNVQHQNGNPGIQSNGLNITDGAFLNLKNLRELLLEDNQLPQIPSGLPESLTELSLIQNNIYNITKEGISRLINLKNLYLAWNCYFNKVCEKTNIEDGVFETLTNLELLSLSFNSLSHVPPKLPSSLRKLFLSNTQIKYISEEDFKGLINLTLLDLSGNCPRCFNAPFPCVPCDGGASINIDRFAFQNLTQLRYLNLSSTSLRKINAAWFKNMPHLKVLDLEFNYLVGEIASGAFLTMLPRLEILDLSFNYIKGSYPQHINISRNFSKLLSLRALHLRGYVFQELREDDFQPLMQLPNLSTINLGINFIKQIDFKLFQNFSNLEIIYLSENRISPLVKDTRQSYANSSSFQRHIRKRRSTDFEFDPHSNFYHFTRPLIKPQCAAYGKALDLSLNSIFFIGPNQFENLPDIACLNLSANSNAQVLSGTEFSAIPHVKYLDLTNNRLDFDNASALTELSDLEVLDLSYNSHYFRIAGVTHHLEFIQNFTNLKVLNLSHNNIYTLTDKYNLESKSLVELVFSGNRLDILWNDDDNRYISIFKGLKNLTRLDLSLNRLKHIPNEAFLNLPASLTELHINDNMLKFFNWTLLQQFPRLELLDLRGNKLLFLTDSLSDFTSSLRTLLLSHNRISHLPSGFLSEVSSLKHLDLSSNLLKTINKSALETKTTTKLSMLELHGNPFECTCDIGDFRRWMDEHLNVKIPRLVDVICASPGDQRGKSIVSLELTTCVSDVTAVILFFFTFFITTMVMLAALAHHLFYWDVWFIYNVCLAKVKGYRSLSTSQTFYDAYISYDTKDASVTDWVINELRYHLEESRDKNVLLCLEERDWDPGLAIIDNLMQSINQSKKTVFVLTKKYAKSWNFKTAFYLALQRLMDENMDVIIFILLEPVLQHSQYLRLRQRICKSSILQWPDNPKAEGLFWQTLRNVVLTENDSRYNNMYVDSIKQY
Method: (§1) Compounds were generally serially diluted (1/3) in DMSO and plated on sterile 384 well tissue culture plates and stored until ready for use. Each ten-point dilution was typically plated in triplicate in parallel rows.
(§2) Fresh blood was collected from normal human donors underwritten informed consent in heparinized syringes on the morning of the assay. The blood was diluted in RPMI-1640 medium and the white blood cells were separated from red blood cells by centrifugation (800 g 15′ 0 acceleration, 0 brake) on a Ficoll cushion. Peripheral blood mononuclear cells (PBMCs) were separated from platelets by a series of low-speed centrifugations (1000RPM 10′) in PBS+5% HI—FBS and 1 mM EDTA. Purified PBMCs were re-suspended in assay medium (RPMI-1640 w Glutamax (Invitrogen) supplemented with 5% HI—FBS, 10 mM HEPES, 50 uM β-mercaptoethanol, and 100 mG/L penicillin/streptomycin cocktail). Viable PBMCs were counted on a hemacytometer and kept on ice until ready for plating.
(§3) A 4× concentration (4 ug/ml or 40 ug/ml for TLR8 or TLR7 assays, respectively) of the TLR7/8 agonist ssRNA40 (IDT) was complexed with 10% DOTAP (Roche) in assay medium for 30 min prior to addition to the PBMC suspension (5 million cells/ml). After addition, the final concentration of ssRNA40 in the TLR7/8 stimulated PBMC suspension was 1 μg/ml for TLR8 assay, and 10 μg/mL for the TLR7 assay. The final DOTAP concentration was 2.5%. Diluted PBMCs (5 million cells/ml) were treated with 4×TLR9 agonist ODN2216 (Invivogen). Final concentration of ODN2216 in TLR9 stimulated PBMC suspension was 0.3 μM.
(§4) Agonist stimulated PBMCs were plated on the compound treated 384 well plates at 150,000 cells/well. Un-stimulated PBMCs were plated as controls on each plate. Plating volume was 40 μL per well. DMSO concentration in each well was 0.25%.
(§5) A separate plate, without compounds, with titrations of ssRNA40 and ODN2216 was included in every assay to measure agonist response of each donor's PBMC prep. Assay plates were placed in a tissue culture incubator (37° C., 5% CO2) for 14-16 hrs. After this incubation, the plates were centrifuged and stored at −20° C. until they were assayed.
(§6) IL-6 TR-FRET Assay for TLR8 activity: • 1) Cisbio Human IL-6 kit, 20,000 tests (62TNFPEC), and GNF High-Base TC 384 well plates (cat #789163G) were used; • 2) the Anti-TIL-6 Cryptate conjugate and the Anti-IL-6 XL665 conjugate were diluted 1:20 in Reconstitution Buffer; • 3) a 1:1 mixture of 3 μl/well Anti-IL-6 Cryptate conjugate and 3 μl/well Anti-IL-6 XL665 conjugate was prepared; • 4) 6 μl/well HTRF dilution mastermix was added to 6 μl of transferred supernatant samples in proxiplates; • 5) The plates were incubated for 3 hrs at rt in the dark; and • 6) the levels of IL-6 production was measured using an Envision plate reader (665 nm (emmission)/590 nm (excitation)) with HTRF settings and ratiometric read-out: (XL665 emission/Eu Cryptate emission)×10,000. IFNα2b AlphaLISA Assay for TLR7 or TLR9 activity After thawing the assay plates, 6 μL of supernatant samples were transferred to a low-volume AlphaPlate 384SW (Perkin-Elmer). The concentration of IFNα in supernatants was measured using the IFNα2b AlphaLISA Assay (Perkin-Elmer: AL297F). 3 μL of IFNα acceptor beads/biotinylated antibody solution was added first, using laboratory automation. After an hour incubation, […] of streptavidin […] bead solution was added. The plates containing this mixture were incubated in the dark for an hour and read on an appropriate plate reader at reading parameters set by the manufacturer. (Envision, EnSpire: Perkin-Elmer).

TLR7 = target: T2, TLR7 (Homo sapiens, UniProt Q9NYK1); assay: huPBMC TLR7 Antagonist IFNα Assay; assay type: cell-based; settings: human PBMCs stimulated with ssRNA40 10 μg/mL (DOTAP), 14-16 hrs; IFNα2b AlphaLISA read-out
T2 construct: Fresh blood was collected from normal human donors; endogenous in cells; host or cells: human PBMCs from fresh donor blood
T2 sequence (Q9NYK1 27-1049): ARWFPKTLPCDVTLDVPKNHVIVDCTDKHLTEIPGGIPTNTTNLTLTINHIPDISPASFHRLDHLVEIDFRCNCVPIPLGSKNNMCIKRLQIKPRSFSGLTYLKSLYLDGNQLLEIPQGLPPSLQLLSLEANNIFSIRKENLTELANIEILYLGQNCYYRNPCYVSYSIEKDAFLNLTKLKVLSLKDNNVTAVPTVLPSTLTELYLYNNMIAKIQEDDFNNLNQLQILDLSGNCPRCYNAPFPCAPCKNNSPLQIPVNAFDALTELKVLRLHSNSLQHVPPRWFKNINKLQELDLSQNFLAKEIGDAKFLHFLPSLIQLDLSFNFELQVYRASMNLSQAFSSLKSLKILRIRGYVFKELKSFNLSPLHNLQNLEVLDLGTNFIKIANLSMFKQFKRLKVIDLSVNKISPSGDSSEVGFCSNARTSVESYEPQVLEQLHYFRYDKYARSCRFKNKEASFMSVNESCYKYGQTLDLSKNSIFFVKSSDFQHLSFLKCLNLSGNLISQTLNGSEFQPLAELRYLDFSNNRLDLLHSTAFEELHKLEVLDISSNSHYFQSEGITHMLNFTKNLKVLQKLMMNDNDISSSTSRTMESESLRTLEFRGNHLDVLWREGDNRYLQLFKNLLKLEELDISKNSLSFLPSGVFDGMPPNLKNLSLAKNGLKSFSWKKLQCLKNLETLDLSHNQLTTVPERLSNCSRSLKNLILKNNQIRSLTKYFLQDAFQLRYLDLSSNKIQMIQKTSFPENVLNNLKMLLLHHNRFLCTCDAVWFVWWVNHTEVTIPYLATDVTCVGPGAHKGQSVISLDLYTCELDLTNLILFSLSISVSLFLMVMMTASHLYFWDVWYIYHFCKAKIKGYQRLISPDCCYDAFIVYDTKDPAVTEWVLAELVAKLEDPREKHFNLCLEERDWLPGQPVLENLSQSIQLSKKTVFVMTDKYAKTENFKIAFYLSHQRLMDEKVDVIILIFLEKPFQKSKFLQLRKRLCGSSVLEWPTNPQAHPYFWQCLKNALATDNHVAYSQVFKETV
Method: as §1, §2, §3, §4, §5, §6

SMILES	IC50 (TLR8)	IC50 (TLR7)
Cc1cc(N2CCc3c(c(C)nn3CC34CCC(N)(CC3)CC4)C2)c2ccn(C)c2n1 [Compound No. 5, 4-((5-(1,6-dimethyl-1H-pyrrolo[2,3-b]pyridin-4-yl)-3-methyl-4,5,6,7-tetrahydro-1H-pyrazolo[4,3-c]pyridin-1-yl)methyl)bicyclo[2.2.2]octan-1-amine]	433 nM	397 nM
Cc1cc(N2CCc3c(c(C)nn3CC34CCC(NS(C)(=O)=O)(CC3)CC4)C2)c2cnn(C)c2n1 [Compound No. 48, N-(4-((5-(1,6-dimethyl-1H-pyrazolo[3,4-b]pyridin-4-yl)-3-methyl-4,5,6,7-tetrahydro-1H-pyrazolo[4,3-c]pyridin-1-yl)methyl)bicyclo[2.2.2]octan-1-yl)methanesulfonamide]	–	13 nM
Cc1cc(N2CCc3c(c(C)nn3CC34CCC(NCC(F)F)(CC3)CC4)C2)c2cnn(C)c2n1 [Compound No. 61, N-(2,2-difluoroethyl)-4-((5-(1,6-dimethyl-1H-pyrazolo[3,4-b]pyridin-4-yl)-3-methyl-4,5,6,7-tetrahydro-1H-pyrazolo[4,3-c]pyridin-1-yl)methyl)bicyclo[2.2.2]octan-1-amine]	129 nM	12 nM
Cc1nc(N2CCc3c(c(C)nn3CC34CCC(NC(=O)C5CNC5)(CC3)CC4)C2)c2c(n1)c(C)nn2C [compound 32, N-(4-((3-methyl-5-(1,3,5-trimethyl-1H-pyrazolo[4,3-d]pyrimidin-7-yl)-4,5,6,7-tetrahydro-1H-pyrazolo[4,3-c]pyridin-1-yl)methyl)bicyclo[2.2.2]octan-1-yl)azetidine-3-carboxamide]	125 nM	124 nM
Cc1cc(N2Cc3cnn(CC45CCC(N)(CC4)CC5)c3C(C)(C)C2)c2cnn(C)c2n1 [compound 60, 4-((5-(1,6-dimethyl-1H-pyrazolo[3,4-b]pyridin-4-yl)-7,7-dimethyl-4,5,6,7-tetrahydro-1H-pyrazolo[4,3-c]pyridin-1-yl)methyl)bicyclo[2.2.2]octan-1-amine]	277 nM	1030 nM
Cc1nn(CC23CCC(N)(CC2)CC3)c2c1CN(c1ccnc(-c3ccccc3)c1)CC2 [compound 63, 4-((3-methyl-5-(2-phenylpyridin-4-yl)-4,5,6,7-tetrahydro-1H-pyrazolo[4,3-c]pyridin-1-yl)methyl)bicyclo[2.2.2]octan-1-amine]	568 nM	34 nM

Continued, values first:

IC50 (TLR8)	IC50 (TLR7)	SMILES
11 nM	5 nM	Cc1cc(N2CCc3c(c(C)nn3CC34CCC(N5CCCCC5)(CC3)CC4)C2)c2cnn(C)c2n1 [compound 67, 5-(1,6-dimethyl-1H-pyrazolo[3,4-b]pyridin-4-yl)-3-methyl-1-((4-(piperidin-1-yl)bicyclo[2.2.2]octan-1-yl)methyl)-4,5,6,7-tetrahydro-1H-pyrazolo[4,3-c]pyridine]
20 nM	4 nM	Cc1cc(N2CCc3c(c(C)nn3CC34CCC(N5C[C@H]6CC[C@@H](C5)O6)(CC3)CC4)C2)c2cnn(C)c2n1 [compound 120, (1R,5S)-3-(4-((5-(1,6-dimethyl-1H-pyrazolo[3,4-b]pyridin-4-yl)-3-methyl-4,5,6,7-tetrahydro-1H-pyrazolo[4,3-c]pyridin-1-yl)methyl)bicyclo[2.2.2]octan-1-yl)-8-oxa-3-azabicyclo[3.2.1]octane]
2790 nM	6 nM	Cc1cc(N2CCc3c(c(C)nn3CC34CCC(NC(=O)CN(C)S(C)(=O)=O)(CC3)CC4)C2)c2cnn(C)c2n1 [compound 138, N-(4-((5-(1,6-dimethyl-1H-pyrazolo[3,4-b]pyridin-4-yl)-3-methyl-4,5,6,7-tetrahydro-1H-pyrazolo[4,3-c]pyridin-1-yl)methyl)bicyclo[2.2.2]octan-1-yl)-2-(N-methylmethylsulfonamido)acetamide]
3540 nM	67 nM	CC(=O)N(C)CC(=O)NC12CCC(Cn3nc(C)c4c3CCN(c3cc(C)nc5c3cnn5C)C4)(CC1)CC2 [compound 139, N-(4-((5-(1,6-dimethyl-1H-pyrazolo[3,4-b]pyridin-4-yl)-3-methyl-4,5,6,7-tetrahydro-1H-pyrazolo[4,3-c]pyridin-1-yl)methyl)bicyclo[2.2.2]octan-1-yl)-2-(N-methylacetamido)acetamide]
